These are literature values, as cited in US6376468B1, “Protein:prenyl transferase inhibitors” (Nederlandse Organisatie Voor …, priority 1999, dated 2002).

The series concerns the target T1, Ras farnesyl transferase from human colon carcinoma (Homo sapiens, UniProt P49354+P49356).
T1 construct: host or cells: human colon carcinoma
The note with it: J. Biol. Chem. 268 (1993), 20695-98.

As to `CSCCC(NC(=O)c1cccc(CNC(=O)C(N)CS)c1)C(=O)O` (stereo not shown) [Cys-NH-CH2-mC6H4-CO-Met], the IC50 is 60 nM.

The IC50 is the concentration that gives 50% inhibition.
